The values that follow come from patent US12522612B2, “PDE4 inhibitors, pharmaceutical compositions, and therapeutic applications” (BioTheryX, Inc., priority 2019, dated 2026).

In assay [1] the target is T1, PDE4B (Homo sapiens, UniProt Q07343).
T1 construct: Whole cell extracts were prepared using an immunoprecipitation (IP) lysis buffer; endogenous in cells; host or cells: A549
Briefly: Protein degradation assay in A549 cells, western blot, PDE4B. The class given is cell-based. The following applies: 24 h treatment, read-out: PDE4B degradation relative to DMSO. The protocol: (§1) A549 cells were grown in RPMI 1640 media supplemented with 10% fetal bovine serum, streptomycin, and penicillin. The cells were plated in 6-well plates in the growth media. The next day, fresh growth media were replaced on the cells. The cells were then treated with a compound for 24 h at predetermined concentrations. Whole cell extracts were prepared using an immunoprecipitation (IP) lysis buffer. Briefly, the cells were washed once in PBS, and the cell pellets were resuspended in the IP lysis buffer and incubated for 15 min on ice. Cells debris was removed by centrifugation and the cleared whole cell lysates were transferred to new tubes for further analysis.
(§2) For a western blot analysis, the whole cell protein extracts were separated on 4-12% SDS-polyacrylamide gels, transferred to nitrocellulose, and probed with primary antibodies. Membranes were subsequently washed and probed with IRDYE® secondary antibodies. The signals were detected using an ODYSSEY® Imaging System. The antibodies used in the assay included anti-PDE4B antibody; anti-PDE4D antibodies (top, bottom, and short isoform); β-actin mouse monoclonal antibody; IRDYE® 680RD goat anti-rabbit antibody; and IRDYE® 800CW goat anti-mouse antibody. Compounds B2 to B4, B18, B49 to B52, B76, B77, B79, B81 to B83, B88, B89, and B91 were determined to be able to degradate PDE4B as high as about 50% relative to DMSO.

The test system of assay [2] is TNF-α. Briefly: Cell-based TNF-α inhibition assay in LPS-induced PBMCs (Meso Scale). The following applies: PBMC, PBMCs pretreated 1 h, LPS 100 ng/mL 18-24 h, relative to stimulated DMSO control; for inhibition at 1 µM: compound concentration 1 μM; for inhibition at 0.1 µM: compound concentration 0.1 μM. The procedure, abridged: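 Thawed human PBMCs (200,000/well) in RPMI/10% FBS were pretreated with compound or DMSO for 1 h, then stimulated with LPS (100 ng/mL) for 18-24 h. Supernatant TNF-α was measured by Meso Scale; activity expressed as percent of stimulated DMSO control (percent inhibition).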

Assay [3] deals with PDE4D short isoform. Briefly: Protein degradation assay in A549 cells, western blot, PDE4D. It is filed as cell-based. The following applies: 24 h treatment, same conditions. On the procedure: as §1, §2
In general terms: In western blotting, separated proteins are transferred to a membrane and probed.

The inhibition is the drop in the measured response relative to a control, in per cent.

T1 sequence (Q07343 whole entry): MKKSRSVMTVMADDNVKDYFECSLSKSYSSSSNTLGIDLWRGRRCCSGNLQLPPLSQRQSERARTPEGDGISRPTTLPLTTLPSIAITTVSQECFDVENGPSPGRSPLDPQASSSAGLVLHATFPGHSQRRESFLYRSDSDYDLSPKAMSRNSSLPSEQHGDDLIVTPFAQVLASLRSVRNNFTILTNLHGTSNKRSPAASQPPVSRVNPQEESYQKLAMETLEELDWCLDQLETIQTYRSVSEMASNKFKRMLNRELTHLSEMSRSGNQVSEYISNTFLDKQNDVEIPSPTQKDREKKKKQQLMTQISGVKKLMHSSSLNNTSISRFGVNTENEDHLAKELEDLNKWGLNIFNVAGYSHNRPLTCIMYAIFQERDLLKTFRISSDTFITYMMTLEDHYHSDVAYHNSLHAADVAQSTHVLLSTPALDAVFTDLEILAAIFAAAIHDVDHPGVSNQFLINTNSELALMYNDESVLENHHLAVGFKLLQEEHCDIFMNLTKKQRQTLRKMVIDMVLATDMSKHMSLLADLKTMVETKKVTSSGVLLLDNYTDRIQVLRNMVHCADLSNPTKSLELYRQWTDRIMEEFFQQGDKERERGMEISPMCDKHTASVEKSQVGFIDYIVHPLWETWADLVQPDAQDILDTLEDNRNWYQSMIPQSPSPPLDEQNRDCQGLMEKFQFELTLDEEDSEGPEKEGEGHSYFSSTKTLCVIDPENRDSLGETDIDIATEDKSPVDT

Take `CCOc1cc([C@@H](CS(C)(=O)=O)N2C(=O)c3cc(CCCCCCCC4CCN(c5cccc6c5C(=O)N(C5CCC(=O)NC5=O)C6=O)CC4)cc(NC(C)=O)c3C2=O)ccc1OC` (stereo partly drawn) [Compound B88, N-(6-(7-(1-(2-(2,6-Dioxopiperidin-3-yl)-1,3-dioxoisoindolin-4-yl)piperidin-4-yl)heptyl)-2-((S)-1-(3-ethoxy-4-methoxyphenyl)-2-(methylsulfonyl)ethyl)-1,3-dioxoisoindolin-4-yl)acetamide]: in assay [1], the Dmax was not above 50%.
Turning to `COc1ccc(N2C(=O)c3ccccc3C2=O)cc1OCCCCCCCN1CCC(c2cc(F)cc3c2CN(C2CCC(=O)NC2=O)C3=O)CC1` (centres unmarked) [Compound B51, 2-(3-((7-(4-(2-(2,6-Dioxopiperidin-3-yl)-6-fluoro-1-oxoisoindolin-4-yl)piperidin-1-yl)heptyl)oxy)-4-methoxyphenyl)isoindoline-1,3-dione], the inhibition at 1 µM in assay [2] was in the range of 20 to 40%. Moreover, the Dmax in assay [1] is not above 50%.
On to `CCOc1cc([C@@H](CS(C)(=O)=O)N2C(=O)c3cccc(NC(C)=O)c3C2=O)ccc1OC` [apremilast], for which the “PDE4D degradation (result in words)” value in assay [3] is “did not degradate the PDE4D”.
Take `CCOc1cc([C@@H](CS(C)(=O)=O)N2C(=O)c3cc(CCCCCCCN4CCC(c5cc(F)cc6c5CN(C5CCC(=O)NC5=O)C6=O)CC4)cc(NC(C)=O)c3C2=O)ccc1OC` (stereo partly drawn) [Compound B2, N-(6-(7-(4-(2-(2,6-dioxopiperidin-3-yl)-6-fluoro-1-oxoisoindolin-4-yl)piperidin-1-yl)heptyl)-2-((S)-1-(3-ethoxy-4-methoxyphenyl)-2-(methylsulfonyl)ethyl)-1,3-dioxoisoindolin-4-yl)acetamide]: the inhibition at 1 µM in assay [2] is not below 60%. Moreover, the Dmax in assay [1] is not above 50%.
For `CCOc1cc([C@@H](CS(C)(=O)=O)N2C(=O)c3cc(CCCCCCCCCCCCN4CCC(c5cc(F)cc6c5CN(C5CCC(=O)NC5=O)C6=O)CC4)cc(NC(C)=O)c3C2=O)ccc1OC` (stereo partly drawn) [Compound B79, N-(6-(12-(4-(2-(2,6-Dioxopiperidin-3-yl)-6-fluoro-1-oxoisoindolin-4-yl)piperidin-1-yl)dodecyl)-2-((S)-1-(3-ethoxy-4-methoxyphenyl)-2-(methylsulfonyl)ethyl)-1,3-dioxoisoindolin-4-yl)acetamide], in assay [2], the inhibition at 0.1 µM is not below 60% and the inhibition at 1 µM is not below 60%. Further, the Dmax in assay [1] is not above 50%.
For `O=C1CCC(N2Cc3c(NCCCOCCOCCOCCOc4ccc(C(=O)Nc5c(Cl)cncc5Cl)cc4OCC4CC4)cccc3C2=O)C(=O)N1` (centres unmarked) [Compound B81, 3-(Cyclopropylmethoxy)-N-(3,5-dichloropyridin-4-yl)-4-(2-(2-(2-(3-((2-(2,6-dioxopiperidin-3-yl)-1-oxoisoindolin-4-yl)amino)propoxy)ethoxy)ethoxy)ethoxy)benzamide], the Dmax in assay [1] is not above 50%.
With `O=C1CCC(N2Cc3c(cc(F)cc3C3CCN(CCCCCCCOc4ccc(N5Cc6ccccc6C5=O)cc4OC4CCCC4)CC3)C2=O)C(=O)N1` (centres unmarked) [Compound B50, 3-(4-(1-(7-(2-(Cyclopentyloxy)-4-(1-oxoisoindolin-2-yl)phenoxy)heptyl)piperidin-4-yl)-6-fluoro-1-oxoisoindolin-2-yl)piperidine-2,6-dione], in assay [2], the inhibition at 1 µM is less than 20%. In assay [1], the Dmax was not above 50%.
`O=C1CCC(N2Cc3c(cc(F)cc3C3CCN(CCCCCCCN(C(=O)c4ccc(OC(F)F)c(OCC5CC5)c4)c4c(Cl)cncc4Cl)CC3)C2=O)C(=O)N1` (centres unmarked) [Compound B3, 3-(Cyclopropylmethoxy)-N-(3,5-dichloropyridin-4-yl)-4-(difluoromethoxy)-N-(7-(4-(2-(2,6-dioxopiperidin-3-yl)-6-fluoro-1-oxoisoindolin-4-yl)piperidin-1-yl)heptyl)benzamide]: in assay [2], the inhibition at 0.1 µM was less than 20% and the inhibition at 1 µM was less than 20%. In assay [1], the Dmax is not above 50%.
In the case of `O=C1CCC(N2Cc3c(cc(F)cc3C3CCN(CCCOc4cc(C(=O)Nc5c(Cl)cncc5Cl)ccc4OC(F)F)CC3)C2=O)C(=O)N1` (centres unmarked) [Compound B83, N-(3,5-Dichloropyridin-4-yl)-4-(difluoromethoxy)-3-(3-(4-(2-(2,6-dioxopiperidin-3-yl)-6-fluoro-1-oxoisoindolin-4-yl)piperidin-1-yl)propoxy)benzamide], the inhibition at 1 µM in assay [2] is 20 to 40%. Besides, the Dmax in assay [1] is not above 50%.
With `CCOc1cc([C@@H](CS(C)(=O)=O)N2C(=O)c3cccc(NC(=O)CCCCCCCCN4CCC(c5cc(F)cc6c5CN(C5CCC(=O)NC5=O)C6=O)CC4)c3C2=O)ccc1OC` (stereo partly drawn) [Compound B77, 9-(4-(2-(2,6-Dioxopiperidin-3-yl)-6-fluoro-1-oxoisoindolin-4-yl)piperidin-1-yl)-N-(2-((S)-1-(3-ethoxy-4-methoxyphenyl)-2-(methylsulfonyl)ethyl)-1,3-dioxoisoindolin-4-yl)nonanamide], in assay [2], the inhibition at 0.1 µM lay in the range of 40 to 60% and the inhibition at 1 µM was not below 60%. Moreover, in assay [1], the Dmax was not above 50%.
For the compound `O=C1CCC(N2Cc3c(cc(F)cc3C3CCN(CCCCCCCOc4cc(C(=O)Nc5c(Cl)cncc5Cl)ccc4OC(F)F)CC3)C2=O)C(=O)N1` (centres unmarked) [Compound B4, N-(3,5-dichloropyridin-4-yl)-4-(difluoromethoxy)-3-((7-(4-(2-(2,6-dioxopiperidin-3-yl)-6-fluoro-1-oxoisoindolin-4-yl)piperidin-1-yl)heptyl)oxy)benzamide], in assay [2], the inhibition at 0.1 µM was not below 60% and the inhibition at 1 µM was not below 60%. The Dmax in assay [1] is not above 50%.
`CCOc1cc([C@@H](CS(C)(=O)=O)N2C(=O)c3cccc(NC(=O)CCOCCOCCNc4cccc5c4C(=O)N(C4CCC(=O)NC4=O)C5=O)c3C2=O)ccc1OC` (stereo partly drawn) [Compound B89, 3-(2-(2-((2-(2,6-Dioxopiperidin-3-yl)-1,3-dioxoisoindolin-4-yl)amino)ethoxy)ethoxy)-N-(2-((S)-1-(3-ethoxy-4-methoxyphenyl)-2-(methylsulfonyl)ethyl)-1,3-dioxoisoindolin-4-yl)propanamide]: the Dmax in assay [1] was not above 50%.
`Cc1ncsc1-c1ccc(CNC(=O)[C@@H]2C[C@@H](O)CN2C(=O)[C@@H](NC(=O)CCCCCCCCCCOc2cc(C(=O)Nc3c(Cl)cncc3Cl)ccc2OC(F)F)C(C)(C)C)cc1` [Compound B76, (2S,4R)-1-((S)-2-(11-(5-((3,5-Dichloropyridin-4-yl)carbamoyl)-2-(difluoromethoxy)phenoxy)undecanamido)-3,3-dimethylbutanoyl)-4-hydroxy-N-(4-(4-methylthiazol-5-yl)benzyl)pyrrolidine-2-carboxamide]: in assay [2], the inhibition at 0.1 µM was not below 60% and the inhibition at 1 µM was not below 60%. Also, the Dmax in assay [1] was not above 50%.
In the case of `O=C1CCC(N2Cc3c(cc(F)cc3C3CCN(CCCCCCCOc4ccc(N5Cc6sccc6C5=O)cc4OC4CCCC4)CC3)C2=O)C(=O)N1` (centres unmarked) [Compound B91, 3-(4-(1-(7-(2-(Cyclopentyloxy)-4-(4-oxo-4,6-dihydro-5H-thieno[2,3-c]pyrrol-5-yl)phenoxy)heptyl)piperidin-4-yl)-6-fluoro-1-oxoisoindolin-2-yl)piperidine-2,6-dione], the Dmax in assay [1] was not above 50%.
On to `COc1ccc(N2C(=O)c3ccc(N)cc3C2=O)cc1OCCCCCCCN1CCC(c2cc(F)cc3c2CN(C2CCC(=O)NC2=O)C3=O)CC1` (centres unmarked) [Compound B52, 5-Amino-2-(3-((7-(4-(2-(2,6-dioxopiperidin-3-yl)-6-fluoro-1-oxoisoindolin-4-yl)piperidin-1-yl)heptyl)oxy)-4-methoxyphenyl)isoindoline-1,3-dione], for which the inhibition at 1 µM in assay [2] is less than 20%. Besides, the Dmax in assay [1] is not above 50%.
Take `COc1ccc(N2Cc3ccccc3C2=O)cc1OCCCCCCCN1CCC(c2cc(F)cc3c2CN(C2CCC(=O)NC2=O)C3=O)CC1` (centres unmarked) [Compound B49, 3-(6-Fluoro-4-(1-(7-(2-methoxy-5-(1-oxoisoindolin-2-yl)phenoxy)heptyl)piperidin-4-yl)-1-oxoisoindolin-2-yl)piperidine-2,6-dione]: the inhibition at 1 µM in assay [2] is less than 20%. The Dmax in assay [1] is not above 50%.
As for `O=C1CCC(N2Cc3c(C#CC4CCN(C(=O)CCCCOc5cc(C(=O)Nc6c(Cl)cncc6Cl)ccc5OC(F)F)CC4)cccc3C2=O)C(=O)N1` (centres unmarked) [Compound B18, N-(3,5-Dichloropyridin-4-yl)-4-(difluoromethoxy)-3-((5-(4-((2-(2,6-dioxopiperidin-3-yl)-1-oxoisoindolin-4-yl)ethynyl)piperidin-1-yl)-5-oxopentyl)oxy)benzamide], in assay [2], the inhibition at 0.1 µM is not below 60% and the inhibition at 1 µM is not below 60%. In assay [1], the Dmax was not above 50%.
